Test results published in article PMC10461224, “Development of an Affinity-Based Probe to Profile Endogenous Human Adenosine A3 Receptor Expression” (Journal of Medicinal Chemistry, 2023).
Marks after values point to notes of the source that are not given here.

Assays:
hA2BAR = target: hA2BAR; parameters: method as in PMID 35395239; conditions: taken from previous experiments ref 71; read-out: KD at CHO-spap-hA2BAR membranes; cited from earlier work
human A1AR (hA1AR) = target: T1, human A1AR (hA1AR) (Homo sapiens, UniProt P30542); assay: Single-point radioligand displacement, [3H]DPCPX; format: binding; conditions: 1 μM probe; CHO cell membranes; co-incubated with radioligand 30 min at 25 °C; mean of two experiments
T1 construct: expressed in transfected cells; host or cells: CHO cells (CHOhA1AR), gift of Prof; S.J. Hill, University of Nottingham; membrane fractions
T1 sequence (P30542 1-326): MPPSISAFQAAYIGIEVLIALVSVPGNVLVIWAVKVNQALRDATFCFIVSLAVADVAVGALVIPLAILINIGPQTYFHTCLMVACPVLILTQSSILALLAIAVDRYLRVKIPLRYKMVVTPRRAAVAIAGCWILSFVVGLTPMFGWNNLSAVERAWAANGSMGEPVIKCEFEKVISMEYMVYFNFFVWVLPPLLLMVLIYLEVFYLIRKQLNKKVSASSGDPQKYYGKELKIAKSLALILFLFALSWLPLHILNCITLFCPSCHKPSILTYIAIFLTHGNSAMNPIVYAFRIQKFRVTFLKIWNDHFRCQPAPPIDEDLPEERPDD
Method: (§1) Membrane aliquots containing 15 μg (CHOhA3AR), 5 μg (CHOhA1AR), or 30 μg (HEK293hA2AAR and CHO-spap-A2BAR) of protein were resuspended in assay buffer (A3AR: 50 mM Tris–HCl, pH 8.0, 10 mM MgCl2, 1 mM EDTA, 0.01% CHAPS; A1AR and A2AAR: 50 mM Tris–HCl, pH 7.4; A2BAR: 50 mM Tris–HCl, pH 7.4, 0.1% CHAPS). […] Nonspecific binding was determined in the presence of 100 μM NECA (A3AR), 100 μM CPA (A1AR), 100 μM NECA (A2AAR), and 10 μM ZM241385 (A2BAR). Incubations were terminated by rapid vacuum filtration to separate the bound and free radioligand through prewetted 96-well GF/C filter plates using a PerkinElmer Filtermate harvester. Filters were subsequently washed 12 times with ice-cold wash buffer (A3AR: 50 mM Tris–HCl, pH 8.0, 10 mM MgCl2, 1 mM EDTA; A1AR and A2AAR: 50 mM Tris–HCl, pH 7.4; A2BAR: 50 mM Tris–HCl, pH 7.4, 0.1% BSA). The plates were dried at 55 °C, and MicroscintTM-20 cocktail (PerkinElmer) was added subsequently.
(§2) Single point displacement values shown are mean percentages of two individual experiments performed in duplicate. All pKi values shown are mean values ± SEM of three individual experiments performed in duplicate.

hA3AR [1] = target: T2, hA3AR (Homo sapiens, UniProt P0DMS8); assay: Wash-out assay, [3H]PSB-11 binding after washing; conditions: 1 μM compound, pre-incubated 2 h at 25 °C, washed 4 times
T2 construct: expressed in transfected cells; host or cells: CHO cells (CHOhA3AR), gift of Prof; K.N. Klotz, University of Würzburg; used as membrane fractions or live cells
T2 sequence (P0DMS8 1-318): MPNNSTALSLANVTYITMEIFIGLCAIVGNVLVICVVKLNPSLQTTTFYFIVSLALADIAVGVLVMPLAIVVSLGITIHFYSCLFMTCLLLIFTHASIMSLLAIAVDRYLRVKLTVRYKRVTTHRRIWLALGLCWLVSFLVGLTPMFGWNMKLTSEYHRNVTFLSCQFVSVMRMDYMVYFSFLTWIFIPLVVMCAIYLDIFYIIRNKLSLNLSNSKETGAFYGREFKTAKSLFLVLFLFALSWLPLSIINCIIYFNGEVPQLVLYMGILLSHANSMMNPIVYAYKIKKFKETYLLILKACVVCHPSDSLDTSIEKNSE
Method: 200 μL assay buffer (50 mM Tris–HCl, pH 8.0, 10 mM MgCl2, 1 mM EDTA and 0.01% CHAPS), 100 μL assay buffer containing the competing ligand (final concentration: 1 μM), and 100 μL of CHOhA3AR membrane fractions (100 μg protein) were combined and pre-incubated for 2 h at 25 °C while shaking. The ‘4× washed’ samples were centrifuged (5 min, 13,000 rpm, 4 °C), and the supernatant was removed. The resulting pellet was dissolved in 1 mL of assay buffer and incubated for 10 min at 25 °C while shaking. The ‘4× washed’ samples were then again centrifuged (2 min, 13,000 rpm, 4 °C), the supernatant was removed, and the resulting pellet was dissolved in 1 mL of assay buffer. The latter washing steps were repeated two times (four times washing total), and the final pellet was dissolved in 300 μL assay buffer. The radioligand (10 nM [^3H]PSB-11) in 100 μL of assay buffer was added to all samples, and the samples were incubated at 25 °C for 1 h. Nonspecific binding was determined in the presence of 100 μM NECA. Incubations were terminated by addition of 1 mL of ice-cold washing buffer (50 mM Tris–HCl, pH 8.0, 10 mM MgCl2, 1 mM EDTA) and rapid vacuum filtration through prewetted 96-well GF/B filter plates using a Brandel harvester. Filters were subsequently washed 5 times with ice-cold wash buffer. The plates were dried under vacuum, and a MicroscintTM-20 cocktail (PerkinElmer) was added subsequently. After 3 h, the filter-bound radioactivity was determined using a 2450 MicroBeta Microplate Counter (PerkinElmer).

hA3AR [2] = target: T2, hA3AR; assay: Single-point radioligand displacement, [3H]PSB-11; format: binding; conditions: 1 μM probe; CHO cell membranes; co-incubated with radioligand 30 min at 25 °C; mean of two experiments
Method: as §1, §2

human A2BAR (hA2BAR) = target: T3, human A2BAR (hA2BAR) (Homo sapiens, UniProt P29275); assay: Single-point radioligand displacement, [3H]PSB-603; format: binding; conditions: 1 μM probe; CHO-spap cell membranes; co-incubated with radioligand 30 min at 25 °C; mean of two experiments
T3 construct: expressed in transfected cells; host or cells: CHO-spap cells (CHO-spap-hA2BAR), gift of S.J. Dowell, GlaxoSmithKline; membrane fractions
T3 sequence (P29275 1-332): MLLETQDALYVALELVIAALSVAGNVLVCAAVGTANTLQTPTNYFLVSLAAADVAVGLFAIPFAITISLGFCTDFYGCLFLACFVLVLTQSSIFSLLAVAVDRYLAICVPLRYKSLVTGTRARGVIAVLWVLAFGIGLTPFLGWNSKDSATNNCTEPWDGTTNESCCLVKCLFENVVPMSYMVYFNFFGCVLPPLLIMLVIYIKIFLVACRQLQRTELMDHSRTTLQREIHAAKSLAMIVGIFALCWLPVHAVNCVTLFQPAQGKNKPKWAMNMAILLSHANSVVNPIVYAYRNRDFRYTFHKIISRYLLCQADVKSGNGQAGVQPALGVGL
Method: as §1, §2

hA3AR [3] = target: T2, hA3AR; assay: Full curve radioligand displacement assay on the adenosine A3 receptor, [3H]PSB-11; format: binding; conditions: mean ± SEM, n=3
Method: Membrane aliquots containing 15 μg of protein (CHOhA3AR) were resuspended in assay buffer (50 mM Tris–HCl, pH 8.0, 10 mM MgCl2, 1 mM EDTA, 0.01% CHAPS). The competing ligand (concentrations ranging from 0.1 to 1000 nM) was added and pre-incubated with the membrane fractions for either 0 or 4 h. The radioligand (10 nM [^3H]PSB-11) was then added and incubated with the samples in a total volume of 100 μL of assay buffer for 30 min at 25 °C. Nonspecific binding was determined in the presence of 100 μM NECA. Incubations were terminated by rapid vacuum filtration through prewetted 96-well GF/C filter plates using a PerkinElmer Filtermate harvester. Filters were subsequently washed 12 times with ice-cold wash buffer (50 mM Tris–HCl, pH 8.0, 10 mM MgCl2, 1 mM EDTA). The plates were dried at 55 °C, and MicroscintTM-20 cocktail (PerkinElmer) was added subsequently. After 3 h, the filter-bound radioactivity was determined using a Tri-Carb 2810TR Liquid Scintillation Analyzer (PerkinElmer).
(§3) […]. Single point displacement values shown are mean percentages of two individual experiments performed in duplicate. All pKi values shown are mean values ± SEM of three individual experiments performed in duplicate. Statistical analysis was performed using a one-way ANOVA test with multiple comparisons (****p < 0.0001).

human A2AAR (hA2AAR) = target: T4, human A2AAR (hA2AAR) (Homo sapiens, UniProt P29274); assay: Single-point radioligand displacement, [3H]ZM241385; format: binding; conditions: 1 μM probe; HEK293 cell membranes; co-incubated with radioligand 30 min at 25 °C; mean of two experiments
T4 construct: expressed in transfected cells; host or cells: HEK293 cells (HEKhA2AAR), gift of Dr. J. Wang, Biogen; membrane fractions
Method: as §1, §2

hA1AR = target: T5, hA1AR (Homo sapiens, UniProt P30542); assay: Full curve displacement assays on the hA1AR; format: binding; conditions: from full curve displacement assays (Table S1)
T5 construct: expressed in transfected cells; host or cells: CHO cells (CHOhA1AR), gift of Prof; S.J. Hill, University of Nottingham; membrane fractions
T5 sequence (P30542 1-326): T1 sequence (P30542 1-326)
Method: The affinity of the synthesized AfBPs was determined in radioligand binding experiments. First, single concentration displacement assays were carried out on all four human adenosine receptors, using a final probe concentration of 1 μM (Table 1). […] This quick screen indicated a good selectivity toward the hA3AR over the other human ARs, a trend that was also observed in the case of the parent compound.[34] Next, the ‘apparent’ affinities (depicted as pKi values) toward the hA3AR were determined using full curve displacement assays. To study the presumable covalent mode of action, the apparent affinity was determined with (pre-4 h) and without (pre-0 h) 4 h of pre-incubation of AfBP with hA3AR, prior to addition of radioligand. […] This difference in affinity was reflected in a shift in apparent pKi. […] To further investigate selectivity toward the hA3AR over the hA1AR, full curve displacement assays were carried out on the hA1AR.
as §3

T4 sequence (P29274 whole entry): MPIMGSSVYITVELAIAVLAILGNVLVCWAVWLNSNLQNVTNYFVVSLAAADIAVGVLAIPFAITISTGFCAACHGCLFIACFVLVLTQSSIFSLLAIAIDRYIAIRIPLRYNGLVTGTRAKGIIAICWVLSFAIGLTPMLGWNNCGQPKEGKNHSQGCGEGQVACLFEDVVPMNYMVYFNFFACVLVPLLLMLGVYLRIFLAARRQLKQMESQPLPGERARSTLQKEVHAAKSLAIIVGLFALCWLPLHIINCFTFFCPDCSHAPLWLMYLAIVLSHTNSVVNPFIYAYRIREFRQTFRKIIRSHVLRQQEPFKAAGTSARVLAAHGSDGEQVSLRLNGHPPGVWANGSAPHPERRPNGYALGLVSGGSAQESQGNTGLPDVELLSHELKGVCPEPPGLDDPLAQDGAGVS

## CCCn1c(=O)[nH]c2nc(-c3ccc(S(=O)(=O)N4CCN(c5ccc(Cl)cc5)CC4)cc3)[nH]c2c1=O [[^3H]PSB603]
hA2BAR
  Kd: 1.7 nM

## C#CCn1c(=O)c2c(nc3cc(OC)ccn32)n(CCCNC(=O)c2ccc(S(=O)(=O)F)cc2)c1=O [compound 13, 4-((3-(8-Methoxy-2,4-dioxo-3-(prop-2-yn-1-yl)-3,4-dihydropyrido[2,1-f]purin-1(2H)-yl)propyl)carbamoyl)benzenesulfonyl fluoride]
Human A1AR (hA1AR)
  % specific [3H]DPCPX displacement, hA1AR: 25%
hA3AR [1]
  binding to hA3AR after wash-out ([3H]PSB-11 binding recovery): persistent binding
hA3AR [2]
  % specific [3H]PSB-11 displacement, hA3AR: 92%
Human A2BAR (hA2BAR)
  % specific [3H]PSB-603 displacement, hA2BAR: 5%
hA3AR [3]; CHO-hA3AR membranes, 25 °C, 0.5 h co-incubation of probe and radioligand, no pre-incubation
  apparent pKi (pre-0 h): 7.17 ± 0.04
hA3AR [3]; CHO-hA3AR membranes, 25 °C, 4 h pre-incubation with probe then 0.5 h co-incubation with radioligand
  apparent pKi (pre-4 h): 8.38 ± 0.05 ^d
hA3AR [3]; hA3AR
  fold change, ratio Ki(0 h)/Ki(4 h): 16.6 ± 3.5
Human A2AAR (hA2AAR)
  % specific [3H]ZM241385 displacement, hA2AAR: 8%

## CCCn1c(=O)c2c(nc3cc(OC)ccn32)n(CCCNC(=O)c2ccc(S(C)(=O)=O)cc2)c1=O [LUF7714, reference compound]
hA3AR [1]
  binding to hA3AR after wash-out ([3H]PSB-11 binding recovery): full recovery of radioligand binding

## COc1ccn2c(c1)nc1c2c(=O)[nH]c(=O)n1CCCNC(=O)OC(C)(C)C [compound 11, tert-Butyl-(3-(8-methoxy-2,4-dioxo-3,4-dihydropyrido[2,1-f]purin-1(2H)-yl)propyl)carbamate]
hA1AR
  selectivity toward the hA3AR over the hA1AR: > 7 fold
